The text below walks through data of US4197299A, “Anti-hypertensive derivatives of ergoline-2-thioethers and their sulphoxides” (priority 1977, dated 1980).

Assay [1] is described as follows: Pharmacological properties, classical tests on laboratory animals. The note with it: in vivo. From the text:
The compounds claimed in the present invention show interesting pharmacological properties, evidenced by means of classical tests on laboratory animals at extremely low doses.

For another assay, the system named is 5HT. Kind of assay: Anti 5HT activity in vitro (f). The note with it: for anti-serotininic activity (in words): as seen from the table; for Anti 5HT activity in vitro EC50: in vitro (f).
A further assay deals with triptamine. The experiment in a line: Antitriptaminic activity in vivo (g). The note with it: sc, read-out: Antitriptaminic activity in vivo ED50. From the text: (g) S. J. Corne et al., Brit. J. Pharmacol., 20, 106, 1963
The subject of assay [2] is adrenalin. The experiment in a line: Antiadrenalin activity in vivo (b). From the text:
(b) F. P. Luduena et al., Arch. Int. Pharmacodyn. 122, 111,
(d) G. Arcari et Coll., Experientia 28, 819,

Assay [3] deals with adrenalin. Kind of assay: Antiadrenalin activity in vitro (a). The note with it: for adrenolytic activity (in words): as seen from the table (in vitro and in vivo); for Antiadrenalin activity in vitro EC50: in vitro (a), adrenolytic. From the text:
(a) J. Brugger, Helv. Physiol. Pharm. Acta 3, 117,
(c) G. Arcari & coll., Brit. J. Pharmacol. 34, 700,

For a further assay, the system named is BaCl2. The experiment in a line: Anti BaCl2 activity (spasmolytic) (e). From the text:
(e) Magnus Pflugers Arch. ges. Physiol., 102, 123,

Another assay can be described thus: Analgesic activity. The assay is classed as in vivo. The note with it: for ED100: sc; for analgesic activity (in words): in vivo.
Another assay deals with ptosis due to reserpine. Kind of assay: Antagonism to ptosis due to reserpine (antidepressive activity). The assay is classed as in vivo. The note with it: po. From the text: Antagonism to ptosis due to reserpine (B. M.
A short description of assay [4]: Antiasthmatic test (Goose, Immunology 16, 749, 1969). The format is in vivo.
Assay [5] relates to adrenalin. The note with it: iv, comparison value with reference (d) Arcari, Experientia 28, 819; cited from earlier work.
For assay [6], the system named is adrenalin. The note with it: comparison value with reference (c) Arcari, Brit. J. Pharmacol. 34, 700; cited from earlier work.
[7] abbreviates: in vivo (b), iv, read-out: Antiadrenalin activity in vivo ED50.

The structures appear in SMILES notation. Structures can show the parent of a compound that is named as a salt. Where two headings read alike, the source gives them in different places.

Consider `CSc1[nH]c2cccc3c2c1C[C@@H]1[C@@H]3C[C@@H](COC(=O)N2CCOCC2)CN1C` [Compound 11, D-6-methyl-2-methylthio-8beta(morpholinocarbonyloxymethyl)ergoline], for which the “pharmacological properties (in words)” value in [1] was “broad spectrum of pharmacologycal properties”. In addition, in the assay with 5HT, the “anti-serotininic activity (in words)” value is recorded as “high” and the “Anti 5HT activity in vitro EC50” value was determined as 0.01 ng/mL. Further, the ED50 – broadly, the dose that gives a 50% effect, or the effect in half of the subjects – in the assay with triptamine (in vivo (g)) was 0.05 mg/kg. Besides, in the assay with adrenalin [2] (setting [7]), the ED50 turned out to be 0.0188 mg/kg. In the assay on adrenalin [3], the “adrenolytic activity (in words)” value is “high” and the “Antiadrenalin activity in vitro EC50” value was found to be 1.3 ng/mL. Moreover, the “Anti BaCl2 activity EC50” value in the assay with BaCl2 turned out to be 10000 ng/mL.
In the assay “Analgesic activity”, `CCC(=O)O[C@](Cc1ccccc1)(c1ccccc1)[C@H](C)CN(C)C` [D-propoxyphene, reference compound] showed an ED100 of 10 mg/kg.
`CSc1c2c3c(cccc3n1C)[C@H]1C[C@@H](COC(=O)N3CCCCC3)CN(C)[C@@H]1C2` [Compound 15, D-1,6-dimethyl-2-methylthio-8beta(piperidinocarbonyloxymethyl)ergolinemaleate]: the ED100 in the assay with ptosis due to reserpine is 0.01 mg/kg.
Take `CSc1c2c3c(cccc3n1C)[C@H]1C[C@@H](COC(=O)N3CCCC3)CN(C)[C@@H]1C2` [Compound 14, D-1,6-dimethyl-2-methylthio-8beta(pyrrolidinocarbonyloxymethyl)ergoline ma leate]: in “Analgesic activity”, the “analgesic activity (in words)” value is “potent analgesic activity” and the ED100 is 5 mg/kg. The compound also displayed an ED100 with ptosis due to reserpine of 0.025 mg/kg.
In turn, `CCN(CC)C(=O)OC[C@@H]1C[C@@H]2c3cccc4c3c(c(SC)n4C)C[C@H]2N(C)C1` [Compound 13, D-1.6-dimethyl-2-methylthio-8beta(diethylaminocarbonyloxymethyl)ergoline maleate] came in with an ED100 in the assay on ptosis due to reserpine of 0.5 mg/kg.
Turning to `CSc1[nH]c2cccc3c2c1C[C@@H]1[C@@H]3C[C@@H](COC(=O)N2CCCCC2)CN1C` [Compound 9, D-6-methyl-2-methylthio-8beta(piperidinocarbonyloxymethyl)ergoline], in assay [1], the “pharmacological properties (in words)” value was “broad spectrum of pharmacologycal properties”. In addition, in the assay on 5HT, the “anti-serotininic activity (in words)” value is “high” and the “Anti 5HT activity in vitro EC50” value stood at 1 ng/mL. The ED50 with triptamine (in vivo (g)) turned out to be 10 mg/kg. The ED50 in the assay on adrenalin [2] (setting [7]) came out at 0.031 mg/kg. Besides, in the assay with adrenalin [3], the “adrenolytic activity (in words)” value is on record as “high” and the “Antiadrenalin activity in vitro EC50” value worked out at 1.8 ng/mL. In the assay with BaCl2, the “Anti BaCl2 activity EC50” value was 2200 ng/mL.
`CSc1[nH]c2cccc3c2c1C[C@@H]1[C@@H]3C[C@@H](COC(=O)N2CCCCCC2)CN1C` [Compound 10, D-6-methyl-2-methylthio-8beta(perhydroazepinylcarbonyloxymethyl)ergoline] showed an ED100 in [4] (po, per os) of 1 mg/kg. Also, in the assay with adrenalin [2] (route not printed there, read-out: adrenolytic ED50), the ED50 turned out to be 0.02 mg/kg.
Compound `CSc1c2c3c(cccc3n1C)[C@H]1C[C@@H](COC(=O)N3CCOCC3)CN(C)[C@@H]1C2` [Compound 17, D-1,6-dimethyl-2-methylthio-8beta(morpholinecarbonyloxymethyl)ergoline] yielded an ED100 in the assay with ptosis due to reserpine of 0.5 mg/kg.
Take `CO[C@]12C[C@@H](COC(=O)c3cncc(Br)c3)CN(C)[C@@H]1Cc1cn(C)c3cccc2c13` [nicergoline]: the “Antiadrenalin activity in vivo ED50” value in the assay with adrenalin [5] is 20 μg/kg/iv. In addition, in the assay with adrenalin [6], the “Antiadrenalin activity in vitro EC50” value is 7 ng/mL.
With `CN(C)CCCN1c2ccccc2CCc2ccccc21` [imipramine, reference compound], the ED100 in the assay with ptosis due to reserpine was determined as 25 mg/kg.
Take `COc1ccc(Cc2nccc3cc(OC)c(OC)cc23)cc1OC` [papaverine, reference compound]: in the assay with BaCl2, the “Anti BaCl2 activity EC50” value was 8900 ng/mL.
In assay [4] (iv), `O=C(O)c1cc(=O)c2c(OCC(O)COc3cccc4oc(C(=O)O)cc(=O)c34)cccc2o1` [sodium chromoglycate] returned an ED100 of 5 mg/kg. Moreover, in [4] (parenteral versus oral route), the “antiasthmatic activity by route” value is “active only by the parenteral route, not by the oral route”.
`CSc1c2c3c(cccc3n1C)[C@H]1C[C@@H](COC(=O)N(C)C)CN(C)[C@@H]1C2` [Compound 12, D-1,6-dimethyl-2-methylthio-8beta(dimethylaminocarbonyloxymethyl)ergoline maleate]: in “Analgesic activity”, the “analgesic activity (in words)” value is recorded as “potent analgesic activity” and the ED100 was 2.5 mg/kg. In the assay with ptosis due to reserpine, this compound displayed an ED100 of 0.025 mg/kg.
`CN1C[C@H](CNC(=O)OCc2ccccc2)C[C@@H]2c3cccc4c3c(cn4C)C[C@H]21` [metergoline, reference compound]: in the assay on triptamine, the ED50 worked out at 0.062 mg/kg.
In the assay on ptosis due to reserpine, `CSc1c2c3c(cccc3n1C)[C@H]1C[C@@H](COC(=O)N3CCCCCC3)CN(C)[C@@H]1C2` [Compound 16, D-1,6-dimethyl-2-methylthio-8beta(perhydroazepinylcarbonyloxymethyl)ergoline maleate] yielded an ED100 of 0.1 mg/kg.
